Measured values as given in article PMC11576109, “Synthesis and biological evaluation of diclofenac acid derivatives as potential lipoxygenase and α-glucosidase inhibitors” (Royal Society Open Science, 2024).
Entries after “also recorded” stand apart in the source; their conditions may differ.

Columns and labels:
mononuclear cells (MNCs) = assay: Cellular viability assay on mononuclear cells; type: cell-based, human
Text: (§1) All of the chemicals and solvents were obtained from Sigma-Aldrich and used directly without any purification. Mononuclear cells were isolated from the blood samples taken from healthy volunteers. Diclofenac acid was purchased from Alfa Aesar. Bruker Avance 400 and 500 MHz spectrometers were used to […] the ^1H and ^13C nuclear magnetic resonance (NMR) spectra, were captured with tetramethylsilane (TMS) serving as an internal reference. On a Finnegan MAT-311A mass spectrometer, high-resolution mass spectrometry using electron ionization (HRMS (EI)) data were recorded. Using the Stuart melting point apparatus, melting points in open capillaries were determined (SMP10). All reactions were monitored by using thin layer chromatography (TLC) plates that were pre-coated with silica gel 60F254.
(§2) Assay protocols for bioactivity were placed in electronic supplementary material.
(§3) Using mononuclear cells (MNCs) at a concentration of 0.25 mM as shown in the table 2, the per cent viability was calculated.

α-glucosidase = α-glucosidase (Saccharomyces cerevisiae, UniProt P53341); assay: In vitro α-glucosidase inhibition assay; type: biochemical; settings: NA = not active; for IC50: read-out: IC50 (µM) ± SEM α-glucosidase
Sequence of α-glucosidase (P53341 whole entry): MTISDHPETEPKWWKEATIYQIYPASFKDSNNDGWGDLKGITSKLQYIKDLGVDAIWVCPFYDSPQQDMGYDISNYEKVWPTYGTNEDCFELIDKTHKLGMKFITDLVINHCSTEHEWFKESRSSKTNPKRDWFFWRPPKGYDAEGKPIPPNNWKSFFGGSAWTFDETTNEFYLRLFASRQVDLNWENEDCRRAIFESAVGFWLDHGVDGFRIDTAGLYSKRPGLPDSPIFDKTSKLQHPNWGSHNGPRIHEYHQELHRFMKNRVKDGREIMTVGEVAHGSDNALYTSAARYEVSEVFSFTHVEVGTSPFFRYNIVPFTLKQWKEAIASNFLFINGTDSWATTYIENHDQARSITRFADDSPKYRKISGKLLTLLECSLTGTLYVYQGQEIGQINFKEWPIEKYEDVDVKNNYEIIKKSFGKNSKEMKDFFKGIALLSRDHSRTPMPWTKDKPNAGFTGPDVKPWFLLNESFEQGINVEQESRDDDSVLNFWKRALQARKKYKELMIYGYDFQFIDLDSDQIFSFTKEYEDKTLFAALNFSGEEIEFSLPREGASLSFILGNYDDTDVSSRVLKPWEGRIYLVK
Text: as §2
Synthesized diclofenac acid derivatives were screened for α-glucosidase inhibitory activity (table 2).

soybean 15-LOX = target: T1, soybean 15-LOX (Glycine max, UniProt P08170); assay: In vitro 15-lipoxygenase inhibition assay; type: biochemical; settings: read-out: IC50 (µM) ± SEM 15-LOX
T1 sequence (P08170 1-839): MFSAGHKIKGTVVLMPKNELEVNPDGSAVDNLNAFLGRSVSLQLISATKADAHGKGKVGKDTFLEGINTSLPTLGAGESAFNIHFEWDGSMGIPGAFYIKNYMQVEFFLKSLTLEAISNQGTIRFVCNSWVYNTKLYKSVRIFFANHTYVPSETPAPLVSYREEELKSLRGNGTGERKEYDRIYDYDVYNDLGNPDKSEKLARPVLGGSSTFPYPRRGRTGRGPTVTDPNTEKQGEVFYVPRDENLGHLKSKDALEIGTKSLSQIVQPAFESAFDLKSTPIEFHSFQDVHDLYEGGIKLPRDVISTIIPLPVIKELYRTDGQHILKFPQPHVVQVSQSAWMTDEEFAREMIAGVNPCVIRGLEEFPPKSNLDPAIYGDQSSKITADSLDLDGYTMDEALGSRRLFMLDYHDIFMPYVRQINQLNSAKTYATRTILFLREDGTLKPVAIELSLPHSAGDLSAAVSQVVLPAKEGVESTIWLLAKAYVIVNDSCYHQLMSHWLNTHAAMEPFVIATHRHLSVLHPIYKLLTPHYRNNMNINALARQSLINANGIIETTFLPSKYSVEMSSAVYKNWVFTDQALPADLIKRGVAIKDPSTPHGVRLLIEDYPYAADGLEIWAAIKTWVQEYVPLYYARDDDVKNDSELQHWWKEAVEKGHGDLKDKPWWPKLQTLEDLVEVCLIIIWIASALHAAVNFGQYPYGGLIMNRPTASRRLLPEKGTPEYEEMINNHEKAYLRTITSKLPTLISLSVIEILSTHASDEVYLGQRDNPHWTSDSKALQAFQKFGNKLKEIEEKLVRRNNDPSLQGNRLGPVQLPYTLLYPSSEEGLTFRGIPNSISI
Text: as §2

[1] = Cellular viability assay on mononuclear cells; type: cell-based, human; settings: human, mononuclear cells (MNCs) isolated from blood, read-out: cell viability (%) at 0.25 mM
Text: as §1, §2, §3

| Compound | cell viability (%) at 0.25 mM (mononuclear cells (MNCs)) | IC50 (α-glucosidase) | IC50 (soybean 15-LOX) | IC50 (µM) ± SEM α-glucosidase (α-glucosidase) | viability at 0.25 mM [1] |
| --- | --- | --- | --- | --- | --- |
| O=C(Cc1ccccc1Nc1c(Cl)cccc1Cl)NNC(=S)Nc1ccccc1F [4a] | 79 ± 2% | 53 ± 1 µM | 163 ± 1 µM |  |  |
| O=C(Cc1ccccc1Nc1c(Cl)cccc1Cl)NNC(=S)Nc1cccc(F)c1 [4b] | 82 ± 1% | 5 ± 1 µM | > 250 µM |  |  |
| O=C(Cc1ccccc1Nc1c(Cl)cccc1Cl)NNC(=S)Nc1ccc(F)cc1 [4c] | 62 ± 2% | 53 ± 1 µM | > 250 µM |  |  |
| O=C(Cc1ccccc1Nc1c(Cl)cccc1Cl)NNC(=S)Nc1cccc(Cl)c1Cl [4d] | 73 ± 1% | 28 ± 1 µM | 164 ± 1 µM |  |  |
| O=C(Cc1ccccc1Nc1c(Cl)cccc1Cl)NNC(=S)Nc1ccc(Cl)cc1Cl [4e] | 64 ± 2% | 87 ± 1 µM | 177 ± 1 µM |  |  |
| O=C(Cc1ccccc1Nc1c(Cl)cccc1Cl)NNC(=S)Nc1ccc(Cl)c(Cl)c1 [4f] | 64 ± 2% | 93 ± 1 µM | > 250 µM |  |  |
| Fc1ccccc1-n1c(S)nnc1Cc1ccccc1Nc1c(Cl)cccc1Cl [5a] | 97 ± 2% | 202 ± 1 µM | 14 ± 1 µM |  |  |
| Fc1cccc(-n2c(S)nnc2Cc2ccccc2Nc2c(Cl)cccc2Cl)c1 [5b] | 96 ± 2% | 308 ± 1 µM | 61 ± 1 µM |  |  |
| Fc1ccc(-n2c(S)nnc2Cc2ccccc2Nc2c(Cl)cccc2Cl)cc1 [5c] | 96 ± 2% | 170 ± 1 µM | > 250 µM |  |  |
| Sc1nnc(Cc2ccccc2Nc2c(Cl)cccc2Cl)n1-c1cccc(Cl)c1Cl [5d] | 96 ± 2% | 83 ± 1 µM | 141 ± 1 µM |  |  |
| Sc1nnc(Cc2ccccc2Nc2c(Cl)cccc2Cl)n1-c1ccc(Cl)cc1Cl [5e] | 94 ± 1% | 92 ± 1 µM | 93 ± 1 µM |  |  |
| Sc1nnc(Cc2ccccc2Nc2c(Cl)cccc2Cl)n1-c1ccc(Cl)c(Cl)c1 [5f] | 97 ± 2% | 247 ± 1 µM | 75 ± 1 µM |  |  |
| CCSc1nnc(Cc2ccccc2Nc2c(Cl)cccc2Cl)n1-c1ccc(F)cc1 [6a] | 88 ± 2% | 116 ± 1 µM | > 250 µM |  |  |
| CCSc1nnc(Cc2ccccc2Nc2c(Cl)cccc2Cl)n1-c1ccc(Cl)c(Cl)c1 [6b] | 98 ± 1% | 132 ± 1 µM | > 250 µM |  |  |
| CCCSc1nnc(Cc2ccccc2Nc2c(Cl)cccc2Cl)n1-c1ccc(F)cc1 [6c] | 85 ± 1% | 92 ± 1 µM | > 250 µM |  |  |
| CCCSc1nnc(Cc2ccccc2Nc2c(Cl)cccc2Cl)n1-c1ccc(Cl)c(Cl)c1 [6d] | 78 ± 2% | 90 ± 1 µM | > 250 µM |  |  |

| Compound | cell viability (%) at 0.25 mM (mononuclear cells (MNCs)) | IC50 (α-glucosidase) | IC50 (soybean 15-LOX) | IC50 (µM) ± SEM α-glucosidase (α-glucosidase) | viability at 0.25 mM [1] |
| --- | --- | --- | --- | --- | --- |
| Fc1ccccc1Nc1nnc(Cc2ccccc2Nc2c(Cl)cccc2Cl)o1 [7a] | 76 ± 1% | 7 ± 1 µM | 98 ± 1 µM |  |  |
| Fc1cccc(Nc2nnc(Cc3ccccc3Nc3c(Cl)cccc3Cl)o2)c1 [7b] | 72 ± 1% | 3 ± 1 µM | 87 ± 1 µM |  |  |
| Fc1ccc(Nc2nnc(Cc3ccccc3Nc3c(Cl)cccc3Cl)o2)cc1 [7c] | 63 ± 1% | 85 ± 1 µM | 67 ± 1 µM |  |  |
| Clc1cccc(Nc2nnc(Cc3ccccc3Nc3c(Cl)cccc3Cl)o2)c1Cl [7d] | 62 ± 2% | 79 ± 1 µM | 165 ± 1 µM |  |  |
| Clc1ccc(Nc2nnc(Cc3ccccc3Nc3c(Cl)cccc3Cl)o2)c(Cl)c1 [7e] | 43 ± 1% | 61 ± 1 µM | 172 ± 1 µM |  |  |
| Clc1ccc(Nc2nnc(Cc3ccccc3Nc3c(Cl)cccc3Cl)o2)cc1Cl [7f] | 59 ± 2% | 91 ± 1 µM | 143 ± 1 µM |  |  |
| Fc1ccccc1Nc1nnc(Cc2ccccc2Nc2c(Cl)cccc2Cl)s1 [8a] | 86 ± 2% | 99 ± 1 µM | > 250 µM |  |  |
| Fc1cccc(Nc2nnc(Cc3ccccc3Nc3c(Cl)cccc3Cl)s2)c1 [8b] | 92 ± 2% | 11 ± 1 µM | 97 ± 1 µM |  |  |
| Fc1ccc(Nc2nnc(Cc3ccccc3Nc3c(Cl)cccc3Cl)s2)cc1 [8c] | 76 ± 1% | 55 ± 1 µM | 173 ± 1 µM |  |  |
| Clc1cccc(Nc2nnc(Cc3ccccc3Nc3c(Cl)cccc3Cl)s2)c1Cl [8d] | 98 ± 2% | 46 ± 1 µM | 132 ± 1 µM |  |  |
| Clc1ccc(Nc2nnc(Cc3ccccc3Nc3c(Cl)cccc3Cl)s2)c(Cl)c1 [8e] | 75 ± 1% |  | > 250 µM | inactive; also recorded: non-active |  |
| Clc1ccc(Nc2nnc(Cc3ccccc3Nc3c(Cl)cccc3Cl)s2)cc1Cl [8f] | 95 ± 2% | 125 ± 1 µM | 156 ± 1 µM |  |  |
| O=c1cc(-c2ccccc2)oc2cc(O)c(O)c(O)c12 [baicalein, reference compound] |  |  | 22 ± 1 µM |  |  |
| COc1cc(/C=C/C(=O)CC(=O)/C=C/c2ccc(O)c(OC)c2)ccc1O [curcumin, reference compound] |  |  |  |  | 74 ± 2% |
| O=P1(N(CCCl)CCCl)NCCCO1 (stereo not shown) [cyclophosphamide, reference compound] |  |  |  |  | 56 ± 2% |
| O=c1c(O)c(-c2ccc(O)c(O)c2)oc2cc(O)cc(O)c12 [quercetin, reference compound] |  |  |  |  | 92 ± 1% |
